{"source": "patent EP0743064A1", "about": "“Leukotriene antagonists for use in the treatment or prevention of alzheimer's disease” (ELI LILLY AND COMPANY, priority 1995, dated 1996)", "note": "Structures can show the parent of a compound that is named as a salt."}
{"target": "T1, binding of tritiated LTB4 to guinea pig lung membranes (Cavia porcellus, UniProt H0VYV8)", "T1 construct": "contained 25 mg of guinea pig lung membrane protein; from tissue; host or cells: guinea pig lung membranes", "T1 sequence (H0VYV8 1-348)": "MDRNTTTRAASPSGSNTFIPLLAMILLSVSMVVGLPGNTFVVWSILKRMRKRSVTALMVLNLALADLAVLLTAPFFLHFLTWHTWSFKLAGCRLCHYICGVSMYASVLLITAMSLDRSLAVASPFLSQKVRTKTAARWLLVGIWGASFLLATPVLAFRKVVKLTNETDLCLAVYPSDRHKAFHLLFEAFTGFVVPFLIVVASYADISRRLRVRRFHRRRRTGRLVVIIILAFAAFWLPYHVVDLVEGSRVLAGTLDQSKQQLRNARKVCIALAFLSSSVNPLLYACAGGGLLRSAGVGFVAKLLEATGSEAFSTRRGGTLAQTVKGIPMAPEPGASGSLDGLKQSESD", "assay": "biochemical", "units": {"Ki": "nM"}, "procedure": "The effectiveness of compounds of Formula I to inhibit the binding of tritiated LTB4 to guinea pig lung membranes was determined as follows.\n[^3H]-LTB4 Radioligand Binding Assay in Guinea Pig Lung Membranes\nThe binding reaction was terminated by the addition of 1 mL ice cold wash buffer (25 mM Tris-HCl, pH 7.5) followed immediately by vacuum filtration over Whatman GF/C glass fiber filters using a Brandel (Gaithersburg, MD) 48 place harvester. The filters were washed three times with 1 mL of wash buffer. Retained radioactivity was determined by liquid scintillation counting at 50% counting efficiency using Ready Protein Plus cocktail (Beckman, Fullerton, CA). Nondisplaceable binding was determined in the presence of 1 mM LTB4 and was usually less than 10% of total binding. […] The data reported below is the mean -log Ki, otherwise known as the pKi, for n experiments."}
{"smiles": "CCCc1c(OCCCOc2cc(O)c(-c3ccccc3)cc2CC)cccc1Oc1ccccc1C(=O)O", "note": "[Example 61, 2-[2-Propyl-3-[3-(2-ethyl-5-hydroxy-4-phenylphenoxy)-propoxy]phenoxy]benzoic acid sodium salt hemihydrate]", "Ki": 14.1}
{"smiles": "CCc1cc(-c2ccc(F)cc2)c(O)cc1OCCCCCC(c1ccccc1)c1nn[nH]n1", "note": "(centres unmarked) [Example 84, 1-Phenyl-1-(1H-tetrazol-5-yl)-6-(2-ethyl-4-(4-fluorophenyl)-5-hydroxyphenoxy)hexane]", "Ki": 6.31}
{"smiles": "CCc1cc(-c2ccc(F)cc2)c(O)cc1OCCCCCC(c1ccc(OCC(=O)N(C)C)cc1)c1nn[nH]n1", "note": "(centres unmarked) [Example 86, 1-(4-(Dimethylaminocarbonylmethoxy)phenyl)-1-(1H-tetrazol-5-yl)-6-(2-ethyl-4-(4-fluorophenyl)-5-hydroxyphenoxy)hexane]", "Ki": 3.8}
{"smiles": "CCc1cc(-c2ccc(C(F)(F)F)cc2)c(O)cc1OCCCCCC(C)(C)c1nn[nH]n1", "note": "[disodium salt]", "Ki": 66.1}
{"smiles": "CCc1cc(-c2cccc(N(C)C)c2)c(O)cc1OCCCCCC(C)(C)c1nn[nH]n1", "note": "[disodium salt]", "Ki": 63.1}
